This note sets out measurements from patent US20150141411A1, “SUBSTITUTED 3,4-DIHYDRO-2H-PYRIDO[1,2-A]PYRAZINE-1,6-DIONE DERIVATIVES USEFUL FOR THE TREATMENT OF (INTER ALIA) ALZHEIMER'S DISEASE” (Janssen Pharmaceuticals, Inc., priority 2012, published 2015).

Experiment [1] has as its target T1, γ-secretase (Homo sapiens, UniProt P49768).
T1 construct: endogenous in cells; host or cells: SKNBE2 human neuroblastoma cells (carrying hAPP 695 wild type as substrate)
Put plainly: Screening for γ-secretase-modulating activity: Aβtotal in supernatant of SKNBE2 cells carrying hAPP 695 wild type (Alphalisa). Conditions: SKNBE2 human neuroblastoma cells carrying hAPP 695 wild type, overnight incubation, Aβtotal in cell supernatant. The class given is cell-based. In a few lines:
(§1)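 SKNBE2 neuroblastoma cells expressing wild-type hAPP 695 plated at 10^4 cells/well in Ultraculture with test compound, incubated overnight at 37° C. Aβ42 (C-terminal/N-terminal antibody pair) and Aβtotal (N-terminal/4G8 pair) in supernatant quantified by AlphaLISA. IC50 from 4-parameter fit of percent of compound-free control.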

The next experiment relates to Aβ40. Put plainly: In vivo efficacy: brain soluble Aβ40 in non-transgenic rodents (MSD electrochemiluminescence multiplex). On the set-up: species or system mouse. Conditions: dose 30 mg/kg oral dosing, brain soluble fraction, animals sacrificed after 4 h; for response vs control in vivo at 30 mg/kg: Mus musculus, po, 4 h, untreated animals (Ctrl) set at 100, read-out: Aβ40 (% vs Ctrl)_Mean; for Aβ40 (% vs Ctrl)_Mean: untreated animals (Ctrl) set at 100, 30 mg/kg. The text has this: To determine whether acute administration of an Aβ42 lowering agent would reduce Aβ42 levels in vivo, non-transgenic rodents, e.g. mice or rats were used. Animals treated with the Aβ42 lowering agent were examined and compared to those untreated or treated with vehicle and brain levels of soluble Aβ42, Aβ40, Aβ38, and Aβ37 were quantitated by Meso Scale Discovery's (MSD) electrochemiluminescence detection technology. Treatment periods varied from hours (h) to days and were adjusted based on the results of the Aβ42 lowering once a time course of onset of effect could be established.
A typical protocol for measuring Aβ42 lowering in vivo is shown but it is only one of many variations that could be used to optimize the levels of detectable Aβ. For example, Aβ42 lowering compounds were formulated in 20% of Captisol® (a sulfo-butyl ether of β-cyclodextrin) in water or 20% hydroxypropyl βcyclodextrin. The Aβ42 lowering agents were administered as a single oral dose or by any acceptable route of administration to overnight fasted animals. After 4 h, the animals were sacrificed and Aβ42 levels were analysed.
Blood was collected by decapitation and exsanguinations in EDTA-treated collection tubes. Blood was centrifuged at 1900 g for 10 minutes (min) at 4° C. and the plasma recovered and flash frozen for later analysis. The brain was removed from the cranium and hindbrain. The cerebellum was removed and the left and right hemisphere were separated. The left hemisphere was stored at −18° C. for quantitative analysis of test compound levels. The right hemisphere was rinsed with phosphate-buffered saline (PBS) buffer and immediately frozen on dry ice and stored at −80° C. until homogenization for biochemical assays.
Mouse brains from non-transgenic animals were resuspended in 8 volumes of 0.4% DEA (diethylamine)/50 mM NaCl containing protease inhibitors (Roche-11873580001 or 04693159001) per gram of tissue, e.g. for 0.158 g brain, add 1.264 ml of 0.4% DEA. All samples were homogenized in the FastPrep-24 system (MP Biomedicals) using lysing matrix D (MPBio #6913-100) at 6 m/s for 20 seconds. Homogenates were centrifuged at 20800×g for 5 min and supernatants collected. Supernatants were centrifuged at 221.300×g for 50 min. The resulting high speed supernatants were then transferred to fresh eppendorf tubes. Nine parts of supernatant were neutralized with 1 part 0.5 M Tris-HCl pH 6.8 and used to quantify Aβ.
To quantify the amount of Aβ42, Aβ40, Aβ38, and Aβ37 in the soluble fraction of the brain homogenates, simultaneous specific detection of Aβ42, Aβ40, Aβ38, and Aβ37 was performed using MSD's electro-chemiluminescence multiplex detection technology. In this assay purified monoclonal antibodies specific for Abeta37 (JRD/Aβ37/3), Abeta38 (J&JPRD/Aβ38/5), Abeta40 (JRF/cAβ40/28), and Abeta42 (JRF/cAβ42/26) were coated on MSD 4-plex plates. Briefly, the standards (a dilution of synthetic Aβ42, Aβ40, Aβ38, and Aβ37) were prepared in 1.5 ml Eppendorf tube in Ultraculture, with final concentrations ranging from 10000 to 0.3 pg/m. The samples and standards were co-incubated with Sulfo-tag labelled JRF/rAβ/2 antibody to the N-terminus of Aβ as detector antibody. 50 μl of conjugate/sample or conjugate/standards mixtures were then added to the antibody-coated plate. The plate was allowed to incubate overnight at 4° C. in order to allow formation of the antibody-amyloid complex. Following this incubation and subsequent wash steps the assay was finished by adding read buffer according to the manufacturer's instructions (Meso Scale Discovery, Gaitherburg, Md.).
The SULFO-TAG emits light upon electrochemical stimulation initiated at the electrode. MSD Sector instrument SI6000 was used for signal read-out.
The results are shown in Table 5 (dose 30 mg/kg oral dosing) (value for untreated animals as control (Ctrl) was set at 100): […]

The target in experiment [2] is T1, γ-secretase. Put plainly: Screening for γ-secretase-modulating activity: Aβ42 in supernatant of SKNBE2 cells carrying hAPP 695 wild type (Alphalisa). The class given is cell-based. Conditions: SKNBE2 human neuroblastoma cells carrying hAPP 695 wild type, overnight incubation, Aβ42 in cell supernatant. Summed up: as §1

Molecules are shown by their SMILES. Bounds are passed on as bounds.

In the case of `Cc1cn(-c2ccc3n(c2=O)C[C@@H](C)N(Cc2cc(OC(C)C)nc(C(F)(F)F)c2)C3=O)cn1` [compound 128], the IC50 was over 10000 nM at γ-secretase [1] and 90 nM at γ-secretase [2]. Besides, the response vs control in vivo at 30 mg/kg in the experiment with Aβ40 is 116%.
For the molecule `Cc1cn(-c2ccc3n(c2=O)C[C@@H](C)N(Cc2cc(N4CCC(C)CC4)ccc2Cl)C3=O)cn1` [compound 80], the IC50 was over 10000 nM against γ-secretase [1] and 100 nM against γ-secretase [2]. Besides, the response vs control in vivo at 30 mg/kg in the experiment with Aβ40 worked out at 164%.
The matching figures for `Cc1cn(-c2ccc3n(c2=O)C[C@@H](C)N(Cc2cc(OCC(F)(F)F)cc(C(F)(F)F)c2)C3=O)cn1` [compound 166]: over 10000 nM, 50 nM and 107%.
For the molecule `Cc1cn(-c2ccc3n(c2=O)C[C@@H](C)N(Cc2c[nH]c4cc(F)c(Cl)cc24)C3=O)cn1` [compound 195], the results for the IC50 against γ-secretase [1] and against γ-secretase [2] were 6460 nM and 30 nM, respectively. For the same molecule, in the experiment with Aβ40, the response vs control in vivo at 30 mg/kg worked out at 135%.
The matching figures for `CCC(c1cc(OC)cc(C(F)(F)F)c1)N1C(=O)c2ccc(-n3cnc(C)c3)c(=O)n2C[C@H]1C` (single isomer, unassigned) [compound 141]: over 10000 nM, 110 nM and 122%.
For the molecule `Cc1cn(-c2ccc3n(c2=O)CCN(Cc2ccc(Cl)c(C(F)(F)F)c2)C3=O)cn1` [compound 65], the IC50 is over 10000 nM on γ-secretase [1] and 370 nM against γ-secretase [2].
For the molecule `Cc1cn(-c2ccc3n(c2=O)CC(C)N(C(C)c2cc(C(F)(F)F)cc(C(F)(F)F)c2)C3=O)cn1.Cl` (single isomer, unassigned) [compound 112], the IC50 against γ-secretase [1] is over 10000 nM; against γ-secretase [2], 70 nM. Further, in the experiment on Aβ40, the “Aβ40 (% vs Ctrl)_Mean” value came out at 82 % vs Ctrl.
As for `Cc1cn(-c2ccc3n(c2=O)C[C@@H](C)N(Cc2cccc(C(C)(C)C)c2)C3=O)cn1` [compound 23], the figures for the IC50 on γ-secretase [1] and against γ-secretase [2] were over 10000 nM and 140 nM, respectively.
With `Cc1cn(-c2ccc3n(c2=O)CC(C)N(C(C)c2cc(C(F)(F)F)cc(C(F)(F)F)c2)C3=O)cn1.Cl` (single isomer, unassigned) [compound 111], the IC50 against γ-secretase [1] is over 10000 nM; at γ-secretase [2] it was 70 nM. For the same molecule, the “Aβ40 (% vs Ctrl)_Mean” value in the experiment with Aβ40 worked out at 52 % vs Ctrl.
As for `Cc1cn(-c2ccc3n(c2=O)CC(C)N(Cc2cc(OCC4CC4)cc(C(F)(F)F)c2)C3=O)cn1.Cl` (stereo not shown) [compound 6], the IC50 against γ-secretase [1] was over 10000 nM; against γ-secretase [2], 70 nM. The response vs control in vivo at 30 mg/kg in the experiment on Aβ40 came to 108%.
Turning to `Cc1cn(-c2ccc3n(c2=O)CC(C)N(C(C)c2cn(C)c4cc(F)c(Cl)cc24)C3=O)cn1` (single isomer, unassigned) [compound 189], the response vs control in vivo at 30 mg/kg in the experiment with Aβ40 is 118%. Besides, on γ-secretase [2], the IC50 was determined as 220 nM.
As for `Cc1cn(-c2ccc3n(c2=O)CCN(C(C)c2cccc(Cl)c2Cl)C3=O)cn1` (single isomer, unassigned) [10a], the IC50 against γ-secretase [1] is over 10000 nM; against γ-secretase [2] it was 140 nM.
Consider `Cc1cn(-c2ccc3n(c2=O)CC(C)N(C(C)c2c[nH]c4c(F)cc(Cl)cc24)C3=O)cn1` (single isomer, unassigned) [compound 219], for which the IC50 against γ-secretase [1] was found to be 3090 nM; against γ-secretase [2], 20 nM. The response vs control in vivo at 30 mg/kg with Aβ40 turned out to be 95%.
As to `Cc1cc(CN2C(=O)c3ccc(-n4cnc(C)c4)c(=O)n3C[C@H]2C)cc(C(F)(F)F)c1` [compound 59], the IC50 against γ-secretase [1] is over 10000 nM; against γ-secretase [2], 180 nM.
In the case of `Cc1cn(-c2ccc3n(c2=O)C[C@@H](C)N(Cc2cc(CC4CC4)cc(C(F)(F)F)c2)C3=O)cn1` [compound 110], the IC50 was over 10000 nM at γ-secretase [1] and 40 nM against γ-secretase [2]. Moreover, in the experiment on Aβ40, the response vs control in vivo at 30 mg/kg is 103%.
For `Cc1cn(-c2ccc3n(c2=O)CCN(Cc2ccc(C)c(N4CCCCC4)c2)C3=O)cn1` [compound 99], the IC50 against γ-secretase [1] was over 10000 nM; against γ-secretase [2] it was 170 nM.
With `Cc1cn(-c2cc(F)c3n(c2=O)C[C@@H](C)N(Cc2cc(C(F)(F)F)cc(C(F)(F)F)c2)C3=O)cn1` [compound 158], the IC50 is over 10000 nM at γ-secretase [1] and 460 nM on γ-secretase [2]. The response vs control in vivo at 30 mg/kg in the experiment on Aβ40 was determined as 98%.
The like results for `COc1cccc(CN2C(=O)c3ccc(-n4cnc(C)c4)c(=O)n3C[C@H]2C)c1` [compound 132] were, in that order, over 10000 nM, 2140 nM and 121%.
Consider `CCC1Cn2c(ccc(-n3cnc(C)c3)c2=O)C(=O)N1Cc1cc(C(F)(F)F)cc(C(F)(F)F)c1.Cl` (stereo not shown) [compound 1], for which the IC50 against γ-secretase [1] was over 10000 nM; against γ-secretase [2] it was 110 nM.
For the molecule `Cc1cn(-c2ccc3n(c2=O)C[C@@H](C)N(Cc2cc(OC(F)(F)F)cc(C(F)(F)F)c2)C3=O)cn1` [compound 140], the IC50 against γ-secretase [1] was over 10000 nM; on γ-secretase [2], 60 nM. For the same molecule, in the experiment on Aβ40, the response vs control in vivo at 30 mg/kg worked out at 71%.
The matching figures for `C[C@@H]1Cn2c(ccc(-n3cnc(Cl)c3)c2=O)C(=O)N1Cc1cc(C(F)(F)F)cc(C(F)(F)F)c1` [compound 118]: over 10000 nM, 190 nM and 115%.
As to `Cc1cn(-c2ccc3n(c2=O)C[C@@H](C)N(Cc2ccc(C(F)(F)F)c(C(F)(F)F)c2)C3=O)cn1` [compound 46], the IC50 at γ-secretase [1] was over 10000 nM; on γ-secretase [2], 140 nM.
With `Cc1cn(-c2ccc3n(c2=O)CCN(Cc2ccccc2C)C3=O)cn1` [compound 22], the IC50 on γ-secretase [1] is over 10000 nM; against γ-secretase [2] it was 2570 nM.
Consider `Cc1cn(-c2ccc3n(c2=O)CCN(C(C)c2cn(C)c4cc(F)c(Cl)cc24)C3=O)cn1` (single isomer, unassigned) [compound 185], for which the IC50 on γ-secretase [1] amounted to 5890 nM; against γ-secretase [2], 20 nM. The response vs control in vivo at 30 mg/kg in the experiment on Aβ40 amounted to 89%.
The matching figures for `Cc1cn(-c2ccc3n(c2=O)C[C@@H](C)N(Cc2cc(CC(F)(F)F)cc(C(F)(F)F)c2)C3=O)cn1` [compound 134]: over 10000 nM, 100 nM and 115%.
On to `Cc1cn(-c2ccc3n(c2=O)C[C@@H](C)N(Cc2cc(Cl)cc(C(F)(F)F)c2)C3=O)cn1` [compound 63], for which the IC50 against γ-secretase [1] is over 10000 nM; against γ-secretase [2], 190 nM.
Regarding `Cc1cn(-c2ccc3n(c2=O)C[C@@H](C)N(Cc2ccc(Cl)c(Cl)c2)C3=O)cn1` [compound 2], the IC50 against γ-secretase [1] is over 10000 nM; against γ-secretase [2], 170 nM.
For the molecule `CCc1cn(-c2ccc3n(c2=O)CC(C)N(Cc2cc(C(F)(F)F)cc(C(F)(F)F)c2)C3=O)cn1.Cl` (stereo not shown) [compound 7], the values for the IC50 at γ-secretase [1] and on γ-secretase [2] were over 10000 nM and 140 nM, respectively.
The matching figures for `Cc1cn(-c2ccc3n(c2=O)C[C@@H](C)N(Cc2ccc(Cl)c(C(F)(F)F)c2)C3=O)cn1` [compound 62]: over 10000 nM and 130 nM.
The like results for `Cc1cn(-c2ccc3n(c2=O)CCN(Cc2cccc(-c4ccccc4)c2)C3=O)cn1` [compound 5] were, in that order, over 10000 nM and 80 nM.
